The subject of test [1] is NCI/ADR-RES (ovarian cancer cell line). Description: NCI one-dose assay, NCI/ADR-RES. It is filed as cell-based. The note with it: Homo sapiens; NCI/ADR-RES; 10 µM single dose, 48 h incubation; read-out: cell growth inhibition % (GI %). How it is done:
All novel scaffolds 6a–j were carefully selected by the National Cancer Institute (NCI), Bethesda, USA, to elucidate their cytotoxic activity versus 60 human cancer cell lines at 10 µM as a single-dose concentration after a 48 h incubation period.
National Cancer Institution selected all the synthesized 6a–j (NCI), Bethesda, USA, for in vitro one-dose antitumor assay. The methodology protocol for the NCI anticancer screening was reported in detail elsewhere (http://www.dtp.nci.nih.gov). The anticancer assay was performed in full NCI 60 cell lines extracted from nine tumor cell lines, including leukemia, melanoma, lung, colon, CNS, ovarian, renal, prostate, and breast cancer cell lines.

The next test concerns the target T1, PDGFR_ẞ (Homo sapiens, UniProt P09619).
T1 construct: purchased
Description: PDGFR_ẞ kinase assay kit (Kinase-Glo MAX). The test is classed as biochemical. The procedure: (§1) The receptor tyrosine kinases, namely EGFR, VEGFR-2, and PDGFR_ẞ Kinases Assay Kits, are designed to measure EGFR, VEGFR-2, and PDGFR_ẞ Kinases’ activities for screening and profiling applications using Kinase-Glo® MAX as a detection reagent. The EGFR, VEGFR-2, and PDGFR_ẞ Kinases Assay Kits come in a convenient 96-well format, with enough purified recombinant EGFR enzyme, EGFR substrate, ATP, and kinase assay buffer for 100 enzyme reactions. The master mixture (25 µl per well) was equipped out of Kinase assay buffer (6 µl), ATP (500 µM, 1 µl), PTK substrate (50x, 1 µl), and water (17 µl) and transferred into each well. […] EGFR, VEGFR-2, and PDGFR_ẞ Kinases were softened on ice. Its tube was spun briefly to recover its full content of the tube. These enzymes were diluted with 1 × Kinase assay buffer to 1 ng/ µl. The reaction was initiated by adding 20 µl of diluted EGFR, VEGFR-2, and PDGFR_ẞ enzymes to the wells designated “Positive Control” and “Test Inhibitor Control.” The plate was incubated at 30 °C for 40 min. After the 40-min reaction, the Kinase-Glo Max (50 µl) reagent was added to each well. The plate was covered with aluminum foil and incubated at room temperature for 15 min, and the luminescence was measured using the microplate reader.

In another test the test system is tubulin. As to the kind of experiment: Tubulin polymerization inhibition assay. It is filed as biochemical.
The target of a further test is T2, VEGFR-2 (KDR) (Homo sapiens, UniProt P35968).
T2 construct: purchased
T2 sequence (P35968 20-1356): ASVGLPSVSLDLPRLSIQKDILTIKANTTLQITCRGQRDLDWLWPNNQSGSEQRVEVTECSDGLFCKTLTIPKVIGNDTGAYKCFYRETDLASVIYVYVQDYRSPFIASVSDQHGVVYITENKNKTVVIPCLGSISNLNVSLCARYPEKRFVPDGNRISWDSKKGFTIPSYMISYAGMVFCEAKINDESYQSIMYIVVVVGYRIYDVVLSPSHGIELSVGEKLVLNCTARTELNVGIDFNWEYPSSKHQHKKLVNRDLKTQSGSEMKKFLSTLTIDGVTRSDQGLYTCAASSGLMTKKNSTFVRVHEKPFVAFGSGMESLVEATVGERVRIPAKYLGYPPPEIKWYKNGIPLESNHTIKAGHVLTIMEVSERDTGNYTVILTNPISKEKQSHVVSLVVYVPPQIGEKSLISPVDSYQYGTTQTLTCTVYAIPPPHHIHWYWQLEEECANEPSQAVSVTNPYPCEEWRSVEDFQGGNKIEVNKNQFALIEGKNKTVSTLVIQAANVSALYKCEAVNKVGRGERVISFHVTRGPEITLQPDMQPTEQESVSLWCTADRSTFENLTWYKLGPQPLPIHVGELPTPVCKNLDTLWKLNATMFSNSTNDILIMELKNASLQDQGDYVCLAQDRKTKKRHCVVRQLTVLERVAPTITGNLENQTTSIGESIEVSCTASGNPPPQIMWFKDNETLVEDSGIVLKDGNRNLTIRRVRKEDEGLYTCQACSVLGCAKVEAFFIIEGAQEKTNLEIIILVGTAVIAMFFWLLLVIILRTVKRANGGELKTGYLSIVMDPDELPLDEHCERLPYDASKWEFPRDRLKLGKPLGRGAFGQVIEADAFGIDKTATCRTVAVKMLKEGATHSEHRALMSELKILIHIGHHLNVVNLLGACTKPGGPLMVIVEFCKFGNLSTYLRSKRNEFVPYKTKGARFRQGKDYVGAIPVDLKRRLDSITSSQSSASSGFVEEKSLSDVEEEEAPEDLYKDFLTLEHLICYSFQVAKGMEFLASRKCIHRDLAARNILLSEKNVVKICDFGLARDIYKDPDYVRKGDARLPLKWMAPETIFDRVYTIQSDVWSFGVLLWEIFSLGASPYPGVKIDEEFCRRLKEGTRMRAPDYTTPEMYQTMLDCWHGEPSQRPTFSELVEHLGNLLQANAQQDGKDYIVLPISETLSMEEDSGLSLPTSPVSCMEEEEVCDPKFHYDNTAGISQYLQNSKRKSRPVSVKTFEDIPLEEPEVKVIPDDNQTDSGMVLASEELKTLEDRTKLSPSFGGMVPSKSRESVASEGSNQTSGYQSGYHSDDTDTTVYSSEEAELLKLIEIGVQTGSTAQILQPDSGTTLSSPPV
As to the kind of experiment: VEGFR-2 kinase assay kit (Kinase-Glo MAX). The test is classed as biochemical. The procedure:
as §1
In general terms: Kinase-Glo reads ATP consumption through a luciferase reaction.

Test [2] concerns Human Skin Fibroblasts (HSF) cells. Description: Margin of safety: cytotoxicity on human skin fibroblasts (SRB assay). The note with it: Human Skin Fibroblasts, SRB assay, 72 h exposure, read-out: HSF (IC50 ± SD). It is filed as cell-based. How it is done: Cell viability was assessed via SRB assay. Aliquots of 100 µl cell suspension (5 × 10^3 cells) were in 96-well plates and incubated in a complete media for 24 h. […] After 72 h of drug exposure, cells were fixed by replacing media with 150 µl of 10% TCA and incubated at 4 °C for 1 h. The TCA solution was removed, and the cells were washed 5 times with distilled water. Aliquots of […] SRB solution (0.4 w/v) were added and incubated in a dark place at room temperature for 10 min. Plates were washed 3 times with 1% acetic acid and allowed to air-dry overnight. Then, 150 µl of TRIS (10 mM) was added to dissolve the protein-bound SRB stain; the absorbance was measured at 540 nm using a BMG LAB TECH®-FLUO star Omega microplate reader (Ortenberg, Germany).
In general terms: In SRB staining, fixed cells bind dye roughly in proportion to their protein.

Like-named read-outs stand apart in the source and are kept apart here.

We go through two compounds from paper PMC11070402, “New antiproliferative 3-substituted oxindoles inhibiting EGFR/VEGFR-2 and tubulin polymerization” (Molecular Diversity, 2023).

By inhibition is commonly meant how much of the control response was suppressed. A word on the IC50: it is the midpoint of a concentration-inhibition curve.

T1 sequence (P09619 33-1106, species assumed): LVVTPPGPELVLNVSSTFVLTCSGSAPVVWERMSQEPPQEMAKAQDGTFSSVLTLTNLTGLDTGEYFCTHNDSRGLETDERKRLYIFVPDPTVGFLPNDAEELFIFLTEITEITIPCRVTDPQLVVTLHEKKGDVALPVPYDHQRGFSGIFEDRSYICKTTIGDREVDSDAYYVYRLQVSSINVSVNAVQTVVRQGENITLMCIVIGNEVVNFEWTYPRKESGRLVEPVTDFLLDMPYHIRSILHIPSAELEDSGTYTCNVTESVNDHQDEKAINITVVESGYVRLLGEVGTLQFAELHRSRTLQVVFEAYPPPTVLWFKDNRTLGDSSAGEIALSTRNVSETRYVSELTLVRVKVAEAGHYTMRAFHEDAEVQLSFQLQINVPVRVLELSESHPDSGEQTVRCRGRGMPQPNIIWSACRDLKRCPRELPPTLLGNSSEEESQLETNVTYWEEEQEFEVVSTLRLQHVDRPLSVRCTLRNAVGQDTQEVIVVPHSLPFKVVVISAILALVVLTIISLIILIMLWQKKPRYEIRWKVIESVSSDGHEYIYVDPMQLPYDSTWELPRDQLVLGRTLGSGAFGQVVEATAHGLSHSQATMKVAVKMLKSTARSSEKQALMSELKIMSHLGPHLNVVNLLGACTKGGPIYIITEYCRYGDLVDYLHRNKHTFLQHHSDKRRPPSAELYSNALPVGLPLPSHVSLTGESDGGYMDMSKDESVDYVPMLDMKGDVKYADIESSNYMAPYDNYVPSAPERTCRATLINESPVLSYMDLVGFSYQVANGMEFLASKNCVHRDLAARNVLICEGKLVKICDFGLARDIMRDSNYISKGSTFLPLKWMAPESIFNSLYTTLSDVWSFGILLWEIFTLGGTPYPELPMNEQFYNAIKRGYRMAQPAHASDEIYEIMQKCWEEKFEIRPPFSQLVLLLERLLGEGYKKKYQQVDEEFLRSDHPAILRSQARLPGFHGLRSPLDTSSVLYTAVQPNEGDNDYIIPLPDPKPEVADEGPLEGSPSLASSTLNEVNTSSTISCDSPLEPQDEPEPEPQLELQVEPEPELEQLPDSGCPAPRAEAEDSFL

On to `O=C1Nc2cc(Cl)ccc2C1=Cc1ccc(OCC(=O)c2ccc(Br)cc2)cc1` [Compound 6g, 6-Chloro-3-{4-[2-(4-bromophenyl)-2-oxoethoxy]benzylidene}indolin-2-one], for which the inhibition at 10 µM in test [1] was determined as 52.2%.
Consider `O=C1Nc2ccccc2C1=Cc1ccc(OCC(=O)c2ccc(Br)cc2)cc1` [Compound 6f, 3-{4-[2-(4-Bromophenyl)-2-oxoethoxy]benzylidene}indolin-2-one], for which the “%inh PDGFRβ” value was determined as 25.63% at PDGFR_ẞ (conc 0.01 (unit not given)), 40.59% at PDGFR_ẞ (conc 0.1 (unit not given)), 70.36% at PDGFR_ẞ (conc 1 (unit not given)) and 88.18% at PDGFR_ẞ (conc 10 (unit not given)). Moreover, the IC50 on PDGFR_ẞ (read-out: PDGFR_ẞ inhibition (IC50 ± SD)) came to 3.18 ± 0.007 µM; in the test on tubulin (read-out: Tubulin polymerization inhibition (IC50 ± SD)) it was 7.99 ± 0.49 µM; at VEGFR-2 (KDR) (read-out: VEGFR-2 inhibition (IC50 ± SD)), 5.75 ± 0.011 µM; in test [2] (Homo sapiens, HSF, 72 h) it was 19.4 µM; in test [2], 19.4 ± 1.17 µM. Besides, the “%inh Tub” value with tubulin (conc 0.1 (uM printed only in the CA-4 head)) is reported as 7%; in the test with tubulin (conc 1 (uM printed only in the CA-4 head)), 15%; in the test with tubulin (conc 10 (uM printed only in the CA-4 head)) it was 56%; with tubulin (conc 100 (uM printed only in the CA-4 head)), 80%. Moreover, the “%inh VEGFR-2” value at VEGFR-2 (KDR) (conc 0.01 (unit not given)) is given as 12.36%; on VEGFR-2 (KDR) (conc 0.1 (unit not given)) it was 36.13%; at VEGFR-2 (KDR) (conc 1 (unit not given)), 73.94%; at VEGFR-2 (KDR) (conc 10 (unit not given)) it was 88.74%.
